Where a name gives a salt, the structure may show the parent alone.
How the values were obtained:
[1] = tested on: potassium oxonate-induced hyperuricemic rats; assay: Serum uric acid in potassium oxonate-induced hyperuricemic rats, 3 days of gavage (Example 35); assay type: in vivo, SD rats; conditions: for serum uric acid level compared with the model group at the same time point: 2 mg/kg for 3 days; for Uric acid 0 h / Uric acid 1 h / Uric acid 3 h / Uric acid 5 h: serum, 2 mg/kg gavage for 3 days, mean ± SD; for Uric acid 0 h: day 3, 0 h, before potassium oxonate injection, n=6; for Uric acid 1 h: day 3, 1 h after potassium oxonate injection; for Uric acid 3 h: day 3, 3 h after potassium oxonate injection; for Uric acid 5 h: day 3, 5 h after potassium oxonate injection
Method: Compound 13 was a light yellow powder, and compounds 38 and 41 are pseudo-white powders, which are triturated with 0.5% CMC-Na just prior to use to prepare a 0.4 mg/mL suspension for gavage.
36 male SD rats weighed approximately 220-240 g after one week of adaptation. […] The drugs in each group were prepared into a corresponding concentration suspension, and the administration volume was 0.5 mL/100 g.
After the rats in each group were purchased and adapted to feeding, they were fasted for 12 h, and, intraperitoneally, injected with⋅ potassium⋅ gxonate at a⋅dose of 300 mg/kg to establish the model. 0.5 h after modeling, each test drug group was gavaged once. The drug was administered continuously for 3 days. On day 3, blood samples was collected from the retro-orbital venous plexus before and 1, 3, and 5 h after potassium oxonate injection. The samples were centrifuged at 3500 rpm for 10 min, and 30 μL of serum was collected to determine the uric acid level at each time point.
The measurement data of each test were expressed as (mean)±standard deviation). The comparison between groups used ANOVA-Dunnett T test to examine the significance. P<0.05 was used as the significance index, and P<0.01 was used as the extremely significant index.

[2] = Pharmacokinetics of the compounds in SD rats (Example 36); assay type: in vivo; conditions: SD rat plasma
Method: Preparation of compound stock solution: An appropriate amount of compound solid powder was be weighed and added in a certain amount of DMSO, and vortex ultrasound to obtain a 10 mg/mL stock solution.
(§1) Preparation of test compound for gavage: respectively taking an appropriate amount of the compound stock solution, adding a certain amount of Solutol HS15 solution, vortexing for 1 minute, then adding a certain amount of physiological saline, and fully mixing to obtain a 1 mg/mL solution.
as §1, with “for intravenous injection:” for “for gavage:”, “mixing until uniform, so as” for “mixing”, “a 0.5” for “a 1”
The experimental animals were fasted overnight before gavage administration, and were given food 4 hours after administration, with free access to water. Each test compound was divided into two groups, namely intravenous administration group and oral administration group.
Blood samples (150 μL/sample) were collected from the jugular vein of SD rats before administration and at 5 min (only intravenous administration group), 15 min, 30 min, 1 h, 2 h, 4 h, 8 h and 24 h after administration, respectively. The samples were placed in centrifuge tubes containing anticoagulant sodium heparin and centrifuged at 4° C., 2000 g for 5 minutes to separate plasma. The plasma samples were analyzed by LC/MS/MS to detect the concentration of each test compound.
Non-compartmental model-related parameters were calculated by WinNonlin® Professional software.

[3] = Intravenous injection administration - 1 mg/kg
[4] = po, Gavage administration - 10 mg/kg
[5] = 1, 3, and 5 h after modeling, P<0.01 or P<0.05

Row | Compound | serum uric acid level compared with the model group at the same time point ([1]; 3 and 5 h after modeling, P<0.01) | Uric acid 0 h [1] | Uric acid 1 h [1] | Uric acid 3 h [1] | Uric acid 5 h [1] | AUC(0-inf) [2, 3] | Cmax [2, 3] | MRT inf [2, 3] | Tmax [2, 3] | half-life [2, 3] | AUC(0-inf) [2, 4] | Cmax [2, 4] | MRT inf [2, 4] | Tmax [2, 4] | half-life [2, 4] | serum uric acid level compared with the model group at the same time point [1, 5]
1 | CC(C)n1nc(C#N)c2cc(-n3cc(C(=O)Oc4cccc(CO[N+](=O)[O-])c4)cn3)ccc21 [Compound 41, [3-(nitrooxy)methyl]phenyl 1-(3-cyano-1-isopropyl-1H-indazol-5-yl)-1H-pyrazole-4-carboxylate] | significantly reduce | 50.6 ± 7.3 µmol/L | 74.1 ± 16.5 µmol/L | 72.2 ± 20.2 µmol/L | 55.4 ± 14.9 µmol/L |  |  |  |  |  |  |  |  |  |  | 
2 | COCCOC(=O)c1ccnc(-c2ccc3c(c2)c(C#N)nn3C(C)C)c1 [Compound 31, (2-methoxy)ethyl 2-(3-cyano-1-isopropyl-1H-indazol-5-yl) isonicotinate hydrobromide] |  |  |  |  |  | 1010 ng·h/mL | 904 ng/mL | 4.75 h | 0.083 h | 9.03 h | 20900 ng·h/mL | 4310 ng/mL | 3.39 h | 2 h | 2.75 h | 
3 | CC(C)=CCC/C(C)=C/CC/C(C)=C/COC(=O)c1cnn(-c2ccc3c(c2)c(C#N)nn3C(C)C)c1 [Compound 13, (3,7,11-trimethyldodecyl-2,6,10-trien-1-yl) 1-(3-cyano-1-isopropyl-1H-indazol-5-yl)-1H-pyrazole-4-carboxylate] |  | 40.7 ± 4.4 µmol/L | 42.1 ± 10.6 µmol/L | 66.0 ± 10.7 µmol/L | 75.0 ± 7.1 µmol/L |  |  |  |  |  |  |  |  |  |  | significantly reduce
4 | CC(C)n1nc(C#N)c2cc(-c3cc(C(=O)OCCCCO[N+](=O)[O-])ccn3)ccc21 [Compound 39, [4-(nitrooxy)] butyl 2-(3-cyano-1-isopropyl-1H-indazol-5-yl) isonicotinate] |  |  |  |  |  | 886 ng·h/mL | 714 ng/mL | 7.16 h | 0.083 h | 9.92 h | 18300 ng·h/mL | 3900 ng/mL | 3.9 h | 0.5 h | 3.03 h | 
5 | CC(C)OC(=O)c1cnn(-c2ccc3c(c2)c(C#N)nn3C(C)C)c1 [Compound 7, isopropyl 1-(3-cyano-1-isopropyl-1H-indazol-5-yl)-1H-pyrazole-4-carboxylate] |  |  |  |  |  | 674 ng·h/mL | 338 ng/mL | 7.65 h | 0.194 h | 8.6 h | 12900 ng·h/mL | 2920 ng/mL | 3.84 h | 0.5 h | 3.27 h | 
6 | CC(C)n1nc(C#N)c2cc(-n3cc(C(=O)OCCCCO[N+](=O)[O-])cn3)ccc21 [Compound 38, [4-(nitrooxy)] butyl 1-(3-cyano-1-isopropyl-1H-indazol-5-yl)-1H-pyrazole-4-carboxylate] |  | 51.7 ± 5.9 µmol/L | 67.5 ± 19.3 µmol/L | 69.0 ± 24.7 µmol/L | 51.7 ± 6.7 µmol/L |  |  |  |  |  |  |  |  |  |  | significantly reduce
7 | CCOC(=O)c1cnn(-c2ccc3c(c2)c(C#N)nn3C(C)C)c1 [Compound 2, ethyl 1-(3-cyano-1-isopropyl-1H-indazol-5-yl)-1H-pyrazole-4-carboxylate] |  |  |  |  |  | 1400 ng·h/mL | 843 ng/mL | 5.05 h | 0.139 h | 6.12 h | 30100 ng·h/mL | 4780 ng/mL | 4.78 h | 0.667 h | 2.91 h | 
8 | CC(=O)OCCOC(=O)c1ccnc(-c2ccc3c(c2)c(C#N)nn3C(C)C)c1 [Compound 28, (2-acetoxy)ethyl 2-(3-cyano-1-isopropyl-1H-indazol-5-yl) isonicotinate] |  |  |  |  |  | 947 ng·h/mL | 712 ng/mL | 4.31 h | 0.083 h | 8.21 h | 15800 ng·h/mL | 3150 ng/mL | 3.55 h | 2.17 h | 2.93 h | 
9 | CCOC(=O)OC(C)OC(=O)c1ccnc(-c2ccc3c(c2)c(C#N)nn3C(C)C)c1 (stereo not drawn) [Compound 26, ethyl {1-[(ethoxycarbonyl)oxy]} 2-(3-cyano-1-isopropyl-1H-indazol-5-yl) isonicotinate] |  |  |  |  |  | 1290 ng·h/mL | 1970 ng/mL | 2.47 h | 0.083 h | 7.11 h | 31000 ng·h/mL | 5520 ng/mL | 3.57 h | 0.917 h | 2.52 h | 
10 | CC(C)n1nc(C#N)c2cc(-c3cc(C(=O)Oc4cccc(CO[N+](=O)[O-])c4)ccn3)ccc21 [Compound 42, [3-(nitrooxy)methyl]phenyl 2-(3-cyano-1-isopropyl-1H-indazol-5-yl) isonicotinate] |  |  |  |  |  | 767 ng·h/mL | 2.82 ng/mL | 3.37 h | 0.083 h | 6.44 h | 8640 ng·h/mL | 1510 ng/mL | 4.12 h | 1.58 h | 2.91 h | 
11 | COC(=O)c1cnn(-c2ccc3c(c2)c(C#N)nn3C(C)C)c1 [Compound 5, methyl 1-(3-cyano-1-isopropyl-1H-indazol-5-yl)-1H-pyrazole-4-carboxylate] |  |  |  |  |  | 1490 ng·h/mL | 554 ng/mL | 8.38 h | 0.25 h | 7.45 h | 25100 ng·h/mL | 6750 ng/mL | 3.17 h | 1.17 h | 3.78 h | 
12 | COC(=O)c1ccnc(-c2ccc3c(c2)c(C#N)nn3C(C)C)c1 [Compound 19, methyl 2-(3-cyano-1-isopropyl-1H-indazol-5-yl) isonicotinate] |  |  |  |  |  | 776 ng·h/mL | 518 ng/mL | 6.46 h | 0.25 h | 8.78 h | 25300 ng·h/mL | 6170 ng/mL | 2.86 h | 0.667 h | 2.33 h | 

— US20250282753A1, “COMPOUNDS USEFUL FOR REDUCING URIC ACID” (ATOM BIOSCIENCE AMERICA CORPORATION, priority 2022, published 2025)
